How the values were obtained:
[1] = test system: human lung cancer cells (A549); assay: Nude mouse xenograft model of human lung cancer cells, oral administration; type: in vivo; parameters: Tumor size increase (Vt—V0): unit not given here
Description: (§1) Anticancer activity against lung cancer according to the oral administration of Tr-9 was confirmed through a nude mouse xenograft model of human lung cancer cells (A549). Specific pathogen-free (SPF) nude mice of the BALB/C strain were used as the animal model. Animals were bred in the animal room of Daedeok Campus of Hannam University maintained at a temperature of 23±3° C., relative humidity of 55±15%, ventilation frequency of 10-20 times/hr, lighting time of 12 hours(lights on at 8 am and off at 8 pm) and illuminance of 150 to 300 Lux.
(§2) For cancer cell transplantation, all cells were collected and counted on the last day of culture, and the concentration of human lung cancer cell line A549 was adjusted to 5×10^6 cells/ml using PBS. The adjusted cell culture solution was injected subcutaneously into the auxiliary region between the right scapula and chest wall at 0.2 ml (1×10^6 cells/mouse) per mouse.
The Tr-9 was dissolved in sterile PBS and 1 mM Tr-9 200 µℓ was orally administered per mouse once a day, and all animals were weighed immediately before the start of drug (Tr-9) administration and 10 times in total from day 2 to day 23 after cancer cell transplantation (Table 1).
(§3) In Table 1 above, data values are the mean ± standard deviation. After measuring the body weight, the animals were killed using CO2 gas, and the tumor was separated and the size was measured in 3 directions using a vernier caliper for each animal. Then, the change in tumor size was expressed as a calculated value of (length × width × height)/2 (Table 2).
Tumor size increase is (Δt)= Vt—Vo, wherein Vt is the value of measuring the tumor size by date, and Vo is the value of measuring the initial tumor size.

[2] = Change in mouse weight, HCT116 xenograft, intraperitoneal administration; type: in vivo, nude mouse; parameters: Change in mouse weight: unit not given here; details: intraperitoneal once a day
Description: (§4) The Tr-9 was dissolved in sterile PBS and 1 mM Tr-9 200 µℓ was intraperitoneally administered per mouse once a day, and all animals were weighed immediately before the start of drug (Tr-9) administration and 9 times in total from day 2 to day 21 after cancer cell transplantation (Table 7).
as §3, with “7” for “1”, “8).” for “2).”

[3] = test system: human colorectal cancer cells (HCT116); assay: Nude mouse xenograft model of human colorectal cancer cells, intraperitoneal administration; type: in vivo
Description: Anticancer activity against colorectal cancer according to the intraperitoneal administration of Tr-9 was confirmed through a nude mouse xenograft model of human colorectal cancer cells (HCT116). In Example 5, Example 4 was repeated except for using colorectal cancer cells.
as §1, with “Specific” for “Anticancer activity against lung cancer according to the oral administration of Tr-9 was confirmed through a nude mouse xenograft model of human lung cancer cells (A549). Specific”
as §2, with “colorectal” for “lung”, “HCT116” for “A549”
as §4
as §3, with “7” for “1”, “8).” for “2).”
Tumor size increase is (Δt)═ Vt—Vo, wherein Vt is the value of measuring the tumor size by date, and Vo is the value of measuring the initial tumor size.

[4] = Change in mouse weight, A549 xenograft, intraperitoneal administration; type: in vivo, nude mouse; parameters: Change in mouse weight: unit not given here; details: once a day
Description: The Tr-9 was dissolved in sterile PBS and 1 mM Tr-9 200 µℓ was intraperitoneally administered per mouse once a day, and all animals were weighed immediately before the start of drug (Tr-9) administration and 10 times in total from day 2 to day 23 after cancer cell transplantation (Table 4).
as §3, with “4” for “1”, “4).” for “2).”

Structure (SMILES): CC(=O)OC(C)(C)C1CC2=C(C)C(=O)CC2C(C)CC1OC(=O)CC(C)C (centres unmarked) [Tr-9]
- Tumor size increase (Vt—V0) ([1]; oral once a day, Day 0): 0.0±0.0
- Tumor size increase (Vt—V0) ([1]; oral once a day, Day 2): 5.4±1.4
- Inhibition rate (tumor size increase) ([1]; oral once a day, Day 2, vs control): 55.4%
- Tumor size increase (Vt—V0) ([1]; oral once a day, Day 5): 13.9±6.1
- Inhibition rate (tumor size increase) ([1]; oral once a day, Day 5, vs control): 31.5%
- Tumor size increase (Vt—V0) ([1]; oral once a day, Day 7): 24.0±14.5
- Inhibition rate (tumor size increase) ([1]; oral once a day, Day 7, vs control): 25.9%
- Tumor size increase (Vt—V0) ([1]; oral once a day, Day 9): 36.5±12.5
- Inhibition rate (tumor size increase) ([1]; oral once a day, Day 9, vs control): 31.3%
- Tumor size increase (Vt—V0) ([1]; oral once a day, Day 12): 67.8±25.4
- Inhibition rate (tumor size increase) ([1]; oral once a day, Day 12, vs control): 33.5%
- Tumor size increase (Vt—V0) ([1]; oral once a day, Day 14): 119.9±37.5
- Inhibition rate (tumor size increase) ([1]; oral once a day, Day 14, vs control): 34.1%
- Tumor size increase (Vt—V0) ([1]; oral once a day, Day 16): 183.4±85.6
- Inhibition rate (tumor size increase) ([1]; oral once a day, Day 16, vs control): 36.8%
- Tumor size increase (Vt—V0) ([1]; oral once a day, Day 19): 322.8±71.3
- Inhibition rate (tumor size increase) ([1]; oral once a day, Day 19, vs control): 39.0%
- Tumor size increase (Vt—V0) ([1]; oral once a day, Day 21): 448.0±131.2
- Inhibition rate (tumor size increase) ([1]; oral once a day, Day 21, vs control): 39.2%
- Tumor size increase (Vt—V0) ([1]; oral once a day, Day 23): 575.0±159.7
- Tumor weight at Day 23 ([1]; oral once a day, Day 23): 0.676 ± 0.185 g
- Inhibition rate (tumor size increase) ([1]; oral once a day, Day 23, vs control): 41.4%
- tumor size compared to the control group ([1]; oral, after day 19): statistically significantly smaller
- Change in mouse weight ([2]; 0 Day after drug treatment): 100.0 ±0.0
- Change in mouse weight ([2]; 2 Days after drug treatment): 99.7 ±1.7
- Change in mouse weight ([2]; 5 Days after drug treatment): 100.5 ±3.2
- Change in mouse weight ([2]; 7 Days after drug treatment): 99.9 ±4.1
- Change in mouse weight ([2]; 9 Days after drug treatment): 99.8 ±4.9
- Change in mouse weight ([2]; 11 Days after drug treatment): 98.6 ±3.5
- Change in mouse weight ([2]; 14 Days after drug treatment): 99.7 ±4.5
- Change in mouse weight ([2]; 16 Days after drug treatment): 98.5 ±6.0
- Change in mouse weight ([2]; 18 Days after drug treatment): 100.4 ±5.5
- Change in mouse weight ([2]; 21 Days after drug treatment): 102.4 ±7.0
- difference in body weight according to the administration of the drugs ([2]; day 2 to day 21): almost no difference in body weight
- tumor size further reduced compared to the group intraperitoneally administered with the torilin ([3]; intraperitoneal): about 10%
- Tumor size increase (Vt−V0) ([3]; intraperitoneal once a day, Day 0, table title: Change in tumor size): 0.0±0.0
- Tumor size increase (Vt−V0) ([3]; intraperitoneal once a day, Day 2, table title: Change in tumor size): 53.1±17.9
- Inhibition rate (tumor size increase) ([3]; intraperitoneal once a day, Day 2, vs control): 19.8%
- Tumor size increase (Vt−V0) ([3]; intraperitoneal once a day, Day 5, table title: Change in tumor size): 139.4±40.3
- Inhibition rate (tumor size increase) ([3]; intraperitoneal once a day, Day 5, vs control): 22.9%
- Tumor size increase (Vt−V0) ([3]; intraperitoneal once a day, Day 7, table title: Change in tumor size): 312.6±71.9
- Inhibition rate (tumor size increase) ([3]; intraperitoneal once a day, Day 7, vs control): 30.1%
- Tumor size increase (Vt−V0) ([3]; intraperitoneal once a day, Day 9, table title: Change in tumor size): 453.9±112.5
- Inhibition rate (tumor size increase) ([3]; intraperitoneal once a day, Day 9, vs control): 35.1%
- Tumor size increase (Vt−V0) ([3]; intraperitoneal once a day, Day 11, table title: Change in tumor size): 648.7±112.0
- Inhibition rate (tumor size increase) ([3]; intraperitoneal once a day, Day 11, vs control): 37.0%
- Tumor size increase (Vt−V0) ([3]; intraperitoneal once a day, Day 14, table title: Change in tumor size): 849.8±110.2
- Inhibition rate (tumor size increase) ([3]; intraperitoneal once a day, Day 14, vs control): 38.3%
- Tumor size increase (Vt−V0) ([3]; intraperitoneal once a day, Day 16, table title: Change in tumor size): 1075.9±155.6
- Inhibition rate (tumor size increase) ([3]; intraperitoneal once a day, Day 16, vs control): 40.1%
- Tumor size increase (Vt−V0) ([3]; intraperitoneal once a day, Day 18, table title: Change in tumor size): 1326.9±216.2
- Inhibition rate (tumor size increase) ([3]; intraperitoneal once a day, Day 18, vs control): 35.2%
- Tumor weight at Day 21 ([3]; intraperitoneal once a day, Day 21): 2.48 ± 0.308 g
- Tumor size increase (Vt−V0) ([3]; intraperitoneal once a day, Day 21, table title: Change in tumor size): 1690.3±144.2
- Inhibition rate (tumor size increase) ([3]; intraperitoneal once a day, Day 21, vs control): 35.9%
- tumor size compared to the control group ([3]; intraperitoneal, after day 14): statistically significantly smaller
- Change in mouse weight ([4]; 0 Day after drug treatment): 100.0 ±0.0
- Change in mouse weight ([4]; 2 Days after drug treatment): 98.2 ±1.0
- Change in mouse weight ([4]; 5 Days after drug treatment): 94.7 ±2.5
- Change in mouse weight ([4]; 7 Days after drug treatment): 94.1 ±2.2
- Change in mouse weight ([4]; 9 Days after drug treatment): 99.7 ±2.7
- Change in mouse weight ([4]; 12 Days after drug treatment): 96.7 ±3.1
- Change in mouse weight ([4]; 14 Days after drug treatment): 97.3 ±2.8
- Change in mouse weight ([4]; 16 Days after drug treatment): 100.2 ±1.8
- Change in mouse weight ([4]; 19 Days after drug treatment): 98.3 ±2.9
- Change in mouse weight ([4]; 21 Days after drug treatment): 99.4 ±1.6
- Change in mouse weight ([4]; 23 Days after drug treatment): 100.2 ±2.6
- difference in body weight according to the administration of the drugs ([4]; day 2 to day 23): almost no difference in body weight
